Numbers after ± are expanded uncertainties.
Conditions: 101.33 kPa, Liquid; for electrical conductivity: Alternating current cell with electrodes; for viscosity: Concentric cylinders viscometry; for mass density: Vibrating tube method

Compound | viscosity (313.15 K) [mPa·s] | mass density (313.15 K) [kg/m3] | viscosity (323.15 K) [mPa·s] | mass density (323.15 K) [kg/m3] | viscosity (333.15 K) [mPa·s] | mass density (333.15 K) [kg/m3] | viscosity (343.15 K) [mPa·s] | mass density (343.15 K) [kg/m3] | viscosity (353.15 K) [mPa·s] | mass density (353.15 K) [kg/m3] | viscosity (363.15 K) [mPa·s] | mass density (363.15 K) [kg/m3] | viscosity (273.15 K) [mPa·s] | mass density (273.15 K) [kg/m3] | viscosity (278.15 K) [mPa·s] | mass density (278.15 K) [kg/m3] | viscosity (283.15 K) [mPa·s] | mass density (283.15 K) [kg/m3] | viscosity (288.15 K) [mPa·s] | mass density (288.15 K) [kg/m3] | other results
CC(=O)[NH+](C)C.O=S(=O)([N-]S(=O)(=O)C(F)(F)F)C(F)(F)F [N,N-dimethylacetamidium bis(trifluoromethanesulfonyl)amide] | 67.83 ± 1.4 | 1549.8 ± 1.7 | 44.71 ± 0.93 | 1539.4 ± 1.7 | 31.31 ± 0.65 | 1529.1 ± 1.7 | 22.85 ± 0.48 | 1518.6 ± 1.6 | 17.35 ± 0.36 | 1508.1 ± 1.6 | 13.51 ± 0.28 | 1497.8 ± 1.6 | – | – | – | – | – | – | – | – | electrical conductivity (313.15 K): 0.403 ± 0.008 S/m; electrical conductivity (323.15 K): 0.574 ± 0.011 S/m; electrical conductivity (333.15 K): 0.782 ± 0.016 S/m; electrical conductivity (343.15 K): 1.02 ± 0.02 S/m; electrical conductivity (353.15 K): 1.29 ± 0.026 S/m
CCC(=O)N(C)C [N,N-dimethylpropionamide] | 0.778 ± 0.018 | 907.04 ± 3.7 | 0.696 ± 0.017 | 898.13 ± 3.6 | 0.618 ± 0.015 | 889.17 ± 3.6 | 0.556 ± 0.013 | 880.17 ± 3.6 | 0.504 ± 0.012 | 871.11 ± 3.5 | 0.46 ± 0.011 | 861.99 ± 3.5 | 1.44 ± 0.03 | 942.45 ± 3.8 | 1.32 ± 0.03 | 938.02 ± 3.8 | 1.21 ± 0.03 | 933.6 ± 3.8 | 1.11 ± 0.03 | 929.18 ± 3.8 | viscosity (293.15 K): 1.02 ± 0.02 mPa·s; mass density (293.15 K): 924.75 ± 3.8 kg/m3; viscosity (298.15 K): 0.958 ± 0.022 mPa·s; mass density (298.15 K): 920.32 ± 3.7 kg/m3; viscosity (303.15 K): 0.892 ± 0.021 mPa·s; mass density (303.15 K): 915.93 ± 3.7 kg/m3
CC(=O)N(C)C [N,N-dimethylethanamide] | 0.772 ± 0.017 | 922.26 ± 0.95 | 0.692 ± 0.015 | 912.99 ± 0.94 | 0.614 ± 0.014 | 903.68 ± 0.93 | 0.553 ± 0.013 | 894.31 ± 0.92 | 0.502 ± 0.011 | 884.9 ± 0.91 | 0.459 ± 0.011 | 875.43 ± 0.9 | 1.41 ± 0.03 | 959.16 ± 0.98 | 1.29 ± 0.03 | 954.56 ± 0.98 | 1.19 ± 0.03 | 949.95 ± 0.97 | 1.09 ± 0.02 | 945.35 ± 0.97 | viscosity (293.15 K): 1 ± 0.02 mPa·s; mass density (293.15 K): 940.74 ± 0.96 kg/m3; viscosity (298.15 K): 0.946 ± 0.02 mPa·s; mass density (298.15 K): 936.13 ± 0.96 kg/m3; viscosity (303.15 K): 0.883 ± 0.019 mPa·s; mass density (303.15 K): 931.51 ± 0.96 kg/m3
CCC(=O)[NH+](C)C.O=S(=O)([N-]S(=O)(=O)C(F)(F)F)C(F)(F)F | 57.92 ± 1.2 | 1504.73 ± 1.6 | 39.33 ± 0.82 | 1494.43 ± 1.6 | 27.84 ± 0.58 | 1484.21 ± 1.6 | 20.58 ± 0.43 | 1474.06 ± 1.6 | 15.67 ± 0.33 | 1463.98 ± 1.6 | 12.28 ± 0.26 | 1453.97 ± 1.6 | 583.6 ± 21 | 1546.8 ± 1.7 | 401.3 ± 13 | 1541.52 ± 1.7 | 284.2 ± 8.5 | 1536.2 ± 1.7 | 207.2 ± 5.6 | 1530.91 ± 1.7 | electrical conductivity (273.15 K): 0.053 ± 0.001 S/m; electrical conductivity (278.15 K): 0.075 ± 0.002 S/m; electrical conductivity (283.15 K): 0.103 ± 0.002 S/m; electrical conductivity (288.15 K): 0.136 ± 0.003 S/m; electrical conductivity (293.15 K): 0.177 ± 0.004 S/m; viscosity (293.15 K): 154.9 ± 3.9 mPa·s; mass density (293.15 K): 1525.62 ± 1.6 kg/m3; electrical conductivity (298.15 K): 0.225 ± 0.005 S/m; viscosity (298.15 K): 117.7 ± 2.7 mPa·s; mass density (298.15 K): 1520.35 ± 1.6 kg/m3; electrical conductivity (303.15 K): 0.28 ± 0.006 S/m; viscosity (303.15 K): 91.33 ± 2 mPa·s; mass density (303.15 K): 1515.12 ± 1.6 kg/m3; electrical conductivity (313.15 K): 0.415 ± 0.008 S/m; electrical conductivity (323.15 K): 0.585 ± 0.012 S/m; electrical conductivity (333.15 K): 0.787 ± 0.016 S/m; electrical conductivity (343.15 K): 1.01 ± 0.02 S/m; electrical conductivity (353.15 K): 1.28 ± 0.026 S/m
CN(C)C=O [dimethylformamide] | 0.684 ± 0.015 | 929.5 ± 0.13 | 0.615 ± 0.013 | 919.86 ± 0.14 | 0.535 ± 0.012 | 910.17 ± 0.14 | 0.484 ± 0.011 | 900.41 ± 0.14 | 0.436 ± 0.01 | 890.57 ± 0.15 | 0.398 ± 0.009 | 880.65 ± 0.15 | 1.14 ± 0.02 | 967.56 ± 0.12 | 1.06 ± 0.02 | 962.83 ± 0.12 | 0.979 ± 0.021 | 958.1 ± 0.12 | 0.891 ± 0.019 | 953.37 ± 0.12 | viscosity (293.15 K): 0.845 ± 0.018 mPa·s; mass density (293.15 K): 948.61 ± 0.12 kg/m3; viscosity (298.15 K): 0.81 ± 0.017 mPa·s; mass density (298.15 K): 943.85 ± 0.13 kg/m3; viscosity (303.15 K): 0.765 ± 0.016 mPa·s; mass density (303.15 K): 939.07 ± 0.13 kg/m3
